Literature values, collected in US20100242127A1, “METHODS TO IDENTIFY MODULATORS OF B-RAF PROTEIN KINASE AND THEIR USE FOR THE TREATMENT OF ANXIETY AND DEPRESSION” (HELMHOLTZ ZENTRUM MUNCHEN, priority 2007, published 2010).

System: Mek
Conditions: mouse brain

## PD184161
  behavioural phenotype after acute blockade of Mek: depressive-like phenotype
acute
  effect on behavioural actions of antidepressants: counteract the behavioural actions of antidepressants
